Patent US6423518B1, “Design and production of mutant 2,5-diketo-D-gluconic acid reductase enzymes with altered cofactor dependency” (Rutgers, the State University, priority 2000, dated 2002)

Key:
[1] = molecular target: T1, 2,5-diketo-D-gluconic acid reductase A (Corynebacterium sp., wild type SEQ ID NO:1) variant R235G (Corynebacterium sp., UniProt P06632, R235G); assay: Kinetic determination with purified enzyme, NADH cofactor, initial rates (microtiter plate); format: biochemical; conditions: versus wild type; NADH as varied substrate
T1 construct: GroES fragment (N); made in house; host or cells: E. coli JM109
Method: (§1) The activities of the purified enzymes were assayed in 96-well microtiter plates on a plate reader.
(§2) Equation (1) is: [formula]
(§3) B=2,5-diketo-D-gluconic acid concentration;
(§4) Kb=Michaelis Constant for 2,5-diketo-D-gluconic acid;
(§5) Kia=Dissociation Constant for NADH;
(§6) Et=Total enzyme concentration.
(§7) However, the parameters could not be fit in this model with any accuracy, due to the large apparent value of KM for 2,5-diketo-D-gluconic acid, and the low concentration of 2,5-diketo-D-gluconic acid that was used. The 2,5-diketo-D-gluconic acid concentrations were not large enough to saturate the enzyme, so a further mathematical simplification was required. Preliminary fitting of the model indicated both kcat and Kb to be very large in comparison to Ka and Kia Therefore, the rate equation was simplified to the following equation (2): [formula]
(§8) This equation is only valid when B<<Kb.
(§9) This equation was then used to fit the kinetic data, with much better results.
(§10) Other comparisons can also be made between the different mutants using these parameters. […]
(§11) Cells containing plasmids for some of the mutant reductases were grown up on a 1 liter scale using a 10 ml inoculum from a saturated overnight culture. The cells were grown until absorbance of the culture at 600 nm was approximately 1.0. The cells were then induced by adding IPTG to a final concentration of 1 mM. The cells were harvested after growth at 37° C. for 4 hours. The cells were then pelleted by centrifugation and frozen for later use. At a later date, cells were thawed and lysed with the Bug Buster detergent (Novagen) containing Complete Protease Inhibitor Cocktail Tablets (Roche). The pH was lowered to 5.5 with 20 mM sodium acetate (NaOAc) and NaCl was added to a final concentration of 0.15 M. After 10 minutes with the detergent, the cell debris was removed by centrifugation, and the supernatant was loaded onto disposable chromatography columns containing a 10 ml bed volume of DEAE Cellulose (Sigma) for a batch weak ion exchange step. The resin was washed with 0.15 M NaCl, still in the presence of NaOAc, pH 5.5. The bound proteins were then eluted by two washes with 0.5 M NaCl. The eluted material was then diluted back to 0.15 M NaCl by the addition of more 20 mM NaOAc buffer. This was then loaded onto a 4.6 mmD/100mml PEEK column (PerSeptive Biosystems) containing 50 μm DEAE Ceramic HyperD F resin (BioSepra) using an FPLC system. The high performance resin was washed with 0.1 M NaCl and the bound proteins were eluted using a linear salt gradient up to 0.4 M NaCl. Active fractions were pooled and the pH was raised to 7.0 using 50 mM bis-Tris. The pooled fractions were then concentrated by ultrafiltration in a stirred cell unit using a polyethersulfone membrane with a 10,000 MW cut-off (Millipore). The concentrate was loaded onto a Superdex-75 gel filtration column (Pharmacia) using 50 mM bis-Tris pH 7.0 with an FPLC system. The active fractions were again pooled. A small sample from the pooled fractions was electrophoresed on a polyacrylamide gel in the presence of SDS in order to insure homogeneity of the final product.
(§12) NADPH and NADH were prepared fresh for each use in kinetic measurements. These reactions were performed in 96-well microtiter plates using a SpectraMax 190 plate reader (Molecular Devices). Varying amounts of cofactor and substrate were added to the wells and reaction was initiated by the addition of the mutant enzyme. The final volume of each reaction was 200 μl, the reactions were buffered with 50 mM bis-Tris pH 7.0, and the temperature was held at 25° C. […] Initial rate data was collected in each well, and a standard curve was generated each day in order to correlate the change in absorbance of the reaction to a change in concentration of cofactors. All measurements were performed in triplicate (at least) and the runs were averaged for use in kinetic modeling.

[2] = molecular target: T2, 2,5-diketo-D-gluconic acid reductase A (Corynebacterium sp., wild type SEQ ID NO:1) variant K232G (Corynebacterium sp., UniProt P06632, K232G); assay: as above; format: biochemical
T2 construct: GroES fragment (N); made in house; host or cells: E. coli JM109
Method: as §1, §2, §3, §4, §5, §6, §7, §8, §9, §10, §11, §12

[3] = molecular target: T3, 2,5-diketo-D-gluconic acid reductase A (Corynebacterium sp., wild type SEQ ID NO:1) variant R235T (Corynebacterium sp., UniProt P06632, R235T); assay: as above; format: biochemical
T3 construct: GroES fragment (N); made in house; host or cells: E. coli JM109
Method: as §1, §2, §3, §4, §5, §6, §7, §8, §9, §10, §11, §12

[4] = molecular target: T4, 2,5-diketo-D-gluconic acid reductase A (Corynebacterium sp., wild type SEQ ID NO:1) variant R238H (Corynebacterium sp., UniProt P06632, R238H); assay: as above; format: biochemical
T4 construct: GroES fragment (N); made in house; host or cells: E. coli JM109
Method: as §1, §2, §3, §4, §5, §6, §7, §8, §9, §10, §11, §12

[5] = molecular target: T5, 2,5-diketo-D-gluconic acid reductase A (Corynebacterium sp., wild type SEQ ID NO:1) variant K232S (Corynebacterium sp., UniProt P06632, K232S); assay: as above; format: biochemical
T5 construct: GroES fragment (N); made in house; host or cells: E. coli JM109
Method: as §1, §2, §3, §4, §5, §6, §7, §8, §9, §10, §11, §12

[6] = tested on: hemolymph 3-dehydroecdysone 3β-reductase from Spodoptera littoralis; conditions: read-out: KM for NADH; Chen et al. Eur. J. Biochem. 1996; cited from earlier work
[7] = kcat/Ka apparent with NADH, relative to wild type
[8] = versus wild type, NADH as varied substrate

T2 sequence (P06632 whole entry K232G, the tested form may be a part): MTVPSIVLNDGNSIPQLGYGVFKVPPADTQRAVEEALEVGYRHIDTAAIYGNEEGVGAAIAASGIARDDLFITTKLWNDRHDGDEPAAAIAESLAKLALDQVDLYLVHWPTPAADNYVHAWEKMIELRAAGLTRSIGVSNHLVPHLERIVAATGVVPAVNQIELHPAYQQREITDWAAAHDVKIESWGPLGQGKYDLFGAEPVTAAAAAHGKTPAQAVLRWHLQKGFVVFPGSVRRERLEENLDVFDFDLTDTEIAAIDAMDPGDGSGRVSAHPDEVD
T5 sequence (P06632 whole entry K232S, the tested form may be a part): as the sequence (P06632 whole entry K232G, the tested form may be a part) above, with G232S counted along it
T4 sequence (P06632 whole entry R238H, the tested form may be a part): as the sequence (P06632 whole entry K232G, the tested form may be a part) above, with G232K, R238H counted along it
T3 sequence (P06632 whole entry R235T, the tested form may be a part): as the sequence (P06632 whole entry K232G, the tested form may be a part) above, with G232K, R235T counted along it
T1 sequence (P06632 whole entry R235G, the tested form may be a part): as the sequence (P06632 whole entry K232G, the tested form may be a part) above, with G232K, R235G counted along it

## NC(=O)C1=CN([C@@H]2O[C@H](COP(=O)(O)OP(=O)(O)OC[C@H]3O[C@@H](n4cnc5c(N)ncnc54)[C@H](O)[C@@H]3O)[C@@H](O)[C@H]2O)C=CC1 [NADH]
[1]
  increase of apparent kcat: 5 fold
[2]
  Kd: 2020 ± 120 µM
[2]; [7]
  (kcat/KbKia)/(kcat/KbKia)wt: 1.55
[2]; relative to wild type, NADH
  Kia/(Kia)wt: 0.78
[3]
  Kd: 8840 ± 2280 µM
[3]; [7]
  (kcat/KbKia)/(kcat/KbKia)wt: 0.54
[3]; relative to wild type, NADH
  Kia/(Kia)wt: 3.40
[3]; [8]
  increase of apparent Ka: more than 3 fold
  increase of apparent kcat: 2 fold
[4]
  Kd: 2070 ± 130 µM
[4]; [7]
  (kcat/KbKia)/(kcat/KbKia)wt: 6.71
[4]; relative to wild type, NADH
  Kia/(Kia)wt: 0.80
[4]; [8]
  improvement in apparent kcat: more than 5 fold
[5]
  Kd: 2820 ± 270 µM
[5]; [7]
  (kcat/KbKia)/(kcat/KbKia)wt: 0.40
[5]; relative to wild type, NADH
  Kia/(Kia)wt: 1.08
[6]
  Km: 22.8 µM
